Data from US6376497B1, “Antifungal azole derivatives having a fluorinated vinyl group and process for preparing same” (Korea Research Institute of Chemical Technology, priority 1999, dated 2002).

Columns and labels:
Test in all cases: In vitro antifungal activity, microbroth dilution MIC
Format in all cases: cell-based
[1] = system: Cryptococcus neoformans B. 42419; conditions: 4 to 48 hours; for Minimal inhibitory concentration(MIC), Cry. neoformans B. 42419: RPMI-1640, 35° C., no growth observed
Method in brief: (§1)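 Broth microdilution adapted from NCCLS M27, in RPMI-1640 with 0.165 M MOPS, pH 7.0. Yeast or mould inoculum at 2×10^3 CFU/ml was mixed 1:1 with DMSO-derived compound solutions (200 to 0.10 μg/ml before mixing) and incubated at 35 °C for 4 to 48 h. MIC was the concentration showing no growth.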

[2] = system: Trichophyton mentagrophytes A. 9129; conditions: 4 to 48 hours; for Minimal inhibitory concentration(MIC), T. mentagrophytes A. 9129: RPMI-1640, 35° C., no growth observed
Method in brief: as §1

[3] = system: Aspergillus furnigatus B. 19119; conditions: 4 to 48 hours; for Minimal inhibitory concentration(MIC), A furnigatus B. 19119: RPMI-1640, 35° C., no growth observed
Method in brief: as §1

[4] = system: Candida tropicalis A. 13803; conditions: 4 to 48 hours; for Minimal inhibitory concentration(MIC), C. tropicalis A. 13803: RPMI-1640, 35° C., no growth observed
Method in brief: as §1

[5] = system: Aspergillus niger A. 16404; conditions: 4 to 48 hours; for Minimal inhibitory concentration(MIC), A. niger A. 16404: RPMI-1640, 35° C., no growth observed
Method in brief: as §1

[6] = system: Candida pseudotropicalis K. 11658; conditions: 4 to 48 hours; for Minimal inhibitory concentration(MIC), C. pseudotropicalis K. 11658: RPMI-1640, 35° C., no growth observed
Method in brief: as §1

Candida albicans C1-2 = conditions: 4 to 48 hours; for Minimal inhibitory concentration(MIC), C. albicans C1-2: RPMI-1640, 35° C., no growth observed; for Minimal inhibitory concentration (MIC): C. albicans C1-2, RPMI-1640, 35° C.
Method in brief: as §1

[7] = system: Candida albicans IFO. 1385; conditions: 4 to 48 hours; for Minimal inhibitory concentration(MIC), C. albicans IFO. 1385: RPMI-1640, 35° C., no growth observed
Method in brief: as §1

[8] = system: Torulopsis glabrata B. 16205; conditions: 4 to 48 hours; for Minimal inhibitory concentration(MIC), T. glabrata B. 16205: RPMI-1640, 35° C., no growth observed
Method in brief: as §1

Candida krusei K. 11655 = conditions: 4 to 48 hours; for Minimal inhibitory concentration(MIC), C. krusei K. 11655: RPMI-1640, 35° C., no growth observed
Method in brief: as §1

[9] = system: Cryptococcus neoformans IFM. 40092; conditions: 4 to 48 hours; for Minimal inhibitory concentration(MIC), Cry. neoformans IFM. 40092: RPMI-1640, 35° C., no growth observed
Method in brief: as §1

[10] = system: Trichophyton mentagrophytes B. 32663; conditions: 4 to 48 hours; for Minimal inhibitory concentration(MIC), T. mentagrophytes B. 32663: RPMI-1640, 35° C., no growth observed
Method in brief: as §1

[11] = system: Candida parapsitosis A. 7330; conditions: 4 to 48 hours; for Minimal inhibitory concentration(MIC), C. parapsitosis A. 7330: RPMI-1640, 35° C., no growth observed
Method in brief: as §1

[12] = system: Candida albicans A. 10231; conditions: 4 to 48 hours; for Minimal inhibitory concentration(MIC), C. albicans A. 10231: RPMI-1640, 35° C., no growth observed; for Minimal inhibitory concentration (MIC): C. albicans A. 10231, RPMI-1640, 35° C.
Method in brief: as §1

[13] = system: Cryptococcus neoformans A. 34144; conditions: 4 to 48 hours; for Minimal inhibitory concentration(MIC), Cry. neoformans A. 34144: RPMI-1640, 35° C., no growth observed
Method in brief: as §1

Row | Structure (SMILES) | Minimal inhibitory concentration(MIC), Cry. neoformans B. 42419 [1] [µg/mL] | Minimal inhibitory concentration(MIC), T. mentagrophytes A. 9129 [2] [µg/mL] | Minimal inhibitory concentration(MIC), A furnigatus B. 19119 [3] [µg/mL] | Minimal inhibitory concentration(MIC), C. tropicalis A. 13803 [4] [µg/mL] | Minimal inhibitory concentration(MIC), A. niger A. 16404 [5] [µg/mL] | Minimal inhibitory concentration(MIC), C. pseudotropicalis K. 11658 [6] [µg/mL] | Minimal inhibitory concentration(MIC), C. albicans C1-2 (Candida albicans C1-2) [µg/mL] | Minimal inhibitory concentration(MIC), C. albicans IFO. 1385 [7] [µg/mL] | Minimal inhibitory concentration(MIC), T. glabrata B. 16205 [8] [µg/mL] | Minimal inhibitory concentration(MIC), C. krusei K. 11655 (Candida krusei K. 11655) [µg/mL] | Minimal inhibitory concentration(MIC), Cry. neoformans IFM. 40092 [9] | Minimal inhibitory concentration(MIC), T. mentagrophytes B. 32663 [10] [µg/mL] | Minimal inhibitory concentration(MIC), C. parapsitosis A. 7330 [11] [µg/mL] | Minimal inhibitory concentration(MIC), C. albicans A. 10231 [12] [µg/mL] | Minimal inhibitory concentration(MIC), Cry. neoformans A. 34144 [13] [µg/mL] | other results
1 | Cc1cccc(C(=C(F)OCC2COC(Cn3cncn3)(c3ccc(Cl)cc3Cl)O2)C(F)(F)F)c1 (mixture of isomers) [Ex. 80] | 1.56 | 100 | >100 | >100 | >100 | >100 | – | 12.5 | >100 | >100 | 0.78 µg/mL | 100 | >100 | – | 1.56 | Minimal inhibitory concentration (MIC) (Candida albicans C1-2): >100 µg/mL; Minimal inhibitory concentration (MIC) [12]: >100 µg/mL
2 | FC(=Cc1cccc(Cl)c1)Oc1ccc(OCC2COC(Cn3ccnc3)(c3ccc(Cl)cc3Cl)O2)cc1 (mixture of isomers) [Ex. 91] | 1.56 | 100 | 100 | >100 | >100 | >100 | 100 | 6.25 | >100 | >100 | 0.78 µg/mL | >100 | >100 | 100 | 1.56 | –
3 | FC(OCC1COC(Cn2ccnc2)(c2ccc(F)cc2F)O1)=C(c1cccs1)C(F)(F)F (mixture of isomers) [Ex. 68] | – | – | – | – | – | – | – | – | – | – | – | – | – | – | – | Minimal inhibitory concentration (MIC) ([1]; Cry. neoformans B. 42419, RPMI-1640, 35° C.): 0.78 µg/mL; Minimal inhibitory concentration (MIC) ([2]; T. mentagrophytes A. 9129, RPMI-1640, 35° C.): 1.56 µg/mL; Minimal inhibitory concentration (MIC) ([3]; A furnigatus B. 19119, RPMI-1640, 35° C.): 1.56 µg/mL; Minimal inhibitory concentration (MIC) ([4]; C. tropicalis A. 13803, RPMI-1640, 35° C.): 50.0 µg/mL; Minimal inhibitory concentration (MIC) ([5]; A. niger A. 16404, RPMI-1640, 35° C.): 12.5 µg/mL; Minimal inhibitory concentration (MIC) ([6]; C. pseudotropicalis K. 11658, RPMI-1640, 35° C.): 25.0 µg/mL; Minimal inhibitory concentration (MIC) (Candida albicans C1-2): 12.5 µg/mL; Minimal inhibitory concentration (MIC) ([7]; C. albicans IFO. 1385, RPMI-1640, 35° C.): 0.78 µg/mL; Minimal inhibitory concentration (MIC) ([8]; T. glabrata B. 16205, RPMI-1640, 35° C.): 3.13 µg/mL; Minimal inhibitory concentration (MIC) (Candida krusei K. 11655; C. krusei K. 11655, RPMI-1640, 35° C.): 50.0 µg/mL; Minimal inhibitory concentration (MIC) ([9]; Cry. neoformans IFM. 40092, RPMI-1640, 35° C.): ≦0.10 μg/ml; Minimal inhibitory concentration (MIC) ([10]; T. mentagrophytes B. 32663, RPMI-1640, 35° C.): 1.56 µg/mL; Minimal inhibitory concentration (MIC) ([11]; C. parapsitosis A. 7330, RPMI-1640, 35° C.): >100 µg/mL; Minimal inhibitory concentration (MIC) [12]: 6.25 µg/mL; Minimal inhibitory concentration (MIC) ([13]; Cry. neoformans A. 34144, RPMI-1640, 35° C.): 1.56 µg/mL

Second part, led by results:

Row | Minimal inhibitory concentration(MIC), Cry. neoformans B. 42419 [1] [µg/mL] | Minimal inhibitory concentration(MIC), T. mentagrophytes A. 9129 [2] [µg/mL] | Minimal inhibitory concentration(MIC), A furnigatus B. 19119 [3] [µg/mL] | Minimal inhibitory concentration(MIC), C. tropicalis A. 13803 [4] [µg/mL] | Minimal inhibitory concentration(MIC), A. niger A. 16404 [5] [µg/mL] | Minimal inhibitory concentration(MIC), C. pseudotropicalis K. 11658 [6] [µg/mL] | Minimal inhibitory concentration(MIC), C. albicans C1-2 (Candida albicans C1-2) [µg/mL] | Minimal inhibitory concentration(MIC), C. albicans IFO. 1385 [7] [µg/mL] | Minimal inhibitory concentration(MIC), T. glabrata B. 16205 [8] [µg/mL] | Minimal inhibitory concentration(MIC), C. krusei K. 11655 (Candida krusei K. 11655) [µg/mL] | Minimal inhibitory concentration(MIC), Cry. neoformans IFM. 40092 [9] | Minimal inhibitory concentration(MIC), T. mentagrophytes B. 32663 [10] [µg/mL] | Minimal inhibitory concentration(MIC), C. parapsitosis A. 7330 [11] [µg/mL] | Minimal inhibitory concentration(MIC), C. albicans A. 10231 [12] [µg/mL] | Minimal inhibitory concentration(MIC), Cry. neoformans A. 34144 [13] [µg/mL] | Structure (SMILES) | other results
4 | 0.78 | 12.5 | >100 | >100 | >100 | 1.56 | >100 | 1.56 | >100 | 3.13 | ≦0.10 μg/ml | 6.25 | 3.13 | >100 | 0.78 | CC(C)(C)c1ccc(C(=C(F)N2CCN(c3ccc(OCC4COC(Cn5ccnc5)(c5ccc(Cl)cc5Cl)O4)cc3)CC2)C(F)(F)F)cc1 (mixture of isomers) [Ex. 128] | –
5 | >100 | 25.0 | >100 | >100 | >100 | >100 | >100 | 6.25 | 100 | >100 | 1.56 µg/mL | 25.0 | >100 | 100 | 12.5 | FC(Oc1ccc(OCC2COC(Cn3ccnc3)(c3ccc(Cl)cc3Cl)O2)cc1)=C(c1ccccc1)C(F)(F)F (mixture of isomers) [Ex. 93] | –
6 | 3.13 | 6.25 | >100 | 100 | >100 | >100 | 25.0 | 1.56 | 50.0 | >100 | 0.39 µg/mL | 3.13 | >100 | 25.0 | 1.56 | FC(Oc1ccc(OCC2COC(Cn3ccnc3)(c3ccc(F)cc3F)O2)cc1)=C(c1cccc(F)c1)C(F)(F)F (mixture of isomers) [Ex. 115] | –
7 | 6.25 | 25.0 | >100 | >100 | >100 | >100 | 100 | 3.13 | 50 | >100 | 0.78 µg/mL | 6.25 | >100 | 50.0 | 3.13 | COc1ccc(C(=C(F)Oc2ccc(OCC3COC(Cn4ccnc4)(c4ccc(Cl)cc4Cl)O3)cc2)C(F)(F)F)cc1 (mixture of isomers) [Ex. 98] | –
8 | >100 | >100 | >100 | >100 | >100 | >100 | >100 | >100 | >100 | >100 | 1.56 µg/mL | >100 | >100 | >100 | >100 | FC(=C(c1cc(Cl)cc(Cl)c1)C(F)(F)F)N1CCN(c2ccc(OCC3COC(Cn4ccnc4)(c4ccc(Cl)cc4Cl)O3)cc2)CC1 (mixture of isomers) [Ex. 136] | –
